Data published in the NIST ThermoML archive (doi:10.1016/j.fluid.2007.04.030).
± gives the expanded uncertainty stated by the source.

Details: 101 kPa, Liquid

In the case of `CCCCCCO` [hexan-1-ol], the mass density (283.15 K) is reported as 827.82 ± 2.1 kg/m3, the mass density (288.15 K) is reported as 824.25 ± 2.1 kg/m3 and the mass density (293.15 K) is reported as 820.65 ± 2.1 kg/m3. For the same compound, the mass density (298.15 K) was 817.03 ± 2.1 kg/m3, the mass density (303.15 K) was 813.39 ± 2.1 kg/m3 and the mass density (308.15 K) was 809.71 ± 2.1 kg/m3. It also gave a mass density (313.15 K) of 806 ± 2.1 kg/m3, a mass density (318.15 K) of 802.27 ± 2.1 kg/m3 and a mass density (323.15 K) of 798.49 ± 2.1 kg/m3. It also gave a mass density (328.15 K) of 794.67 ± 2.1 kg/m3 and a mass density (333.15 K) of 790.8 ± 2.1 kg/m3.
For `CCCCCCCCO` [octan-1-ol], the mass density (283.15 K) was 832.13 ± 0.54 kg/m3, the mass density (288.15 K) was 828.71 ± 0.55 kg/m3 and the mass density (293.15 K) was 825.27 ± 0.56 kg/m3. It also gave a mass density (298.15 K) of 821.81 ± 0.56 kg/m3, a mass density (303.15 K) of 818.33 ± 0.57 kg/m3 and a mass density (308.15 K) of 814.84 ± 0.58 kg/m3. For the same compound, the mass density (313.15 K) was 811.31 ± 0.58 kg/m3, the mass density (318.15 K) was 807.76 ± 0.59 kg/m3 and the mass density (323.15 K) was 804.19 ± 0.6 kg/m3. The mass density (328.15 K) was 800.58 ± 0.6 kg/m3 and the mass density (333.15 K) was 796.93 ± 0.61 kg/m3.
Work on `CO` [methanol] yielded a mass density (283.15 K) of 801.08 ± 0.56 kg/m3, a mass density (288.15 K) of 796.41 ± 0.57 kg/m3 and a mass density (293.15 K) of 791.71 ± 0.58 kg/m3. It also gave a mass density (298.15 K) of 787.01 ± 0.59 kg/m3, a mass density (303.15 K) of 782.29 ± 0.6 kg/m3 and a mass density (308.15 K) of 777.55 ± 0.61 kg/m3. The mass density (313.15 K) was 772.78 ± 0.62 kg/m3, the mass density (318.15 K) was 767.97 ± 0.63 kg/m3 and the mass density (323.15 K) was 763.12 ± 0.64 kg/m3. It also gave a mass density (328.15 K) of 758.23 ± 0.65 kg/m3 and a mass density (333.15 K) of 753.29 ± 0.66 kg/m3.
Compound `CCO` [ethanol] has a mass density (283.15 K) of 797.96 ± 0.57 kg/m3, a mass density (288.15 K) of 793.71 ± 0.58 kg/m3 and a mass density (293.15 K) of 789.44 ± 0.59 kg/m3. For the same compound, the mass density (298.15 K) was 785.15 ± 0.6 kg/m3, the mass density (303.15 K) was 780.83 ± 0.6 kg/m3 and the mass density (308.15 K) was 776.48 ± 0.61 kg/m3. It also gave a mass density (313.15 K) of 772.09 ± 0.62 kg/m3, a mass density (318.15 K) of 767.65 ± 0.63 kg/m3 and a mass density (323.15 K) of 763.17 ± 0.64 kg/m3. For the same compound, the mass density (328.15 K) was 758.63 ± 0.65 kg/m3 and the mass density (333.15 K) was 754.01 ± 0.66 kg/m3.
Compound `CCCCO` [butan-1-ol] has a mass density (283.15 K) of 817.15 ± 0.54 kg/m3, a mass density (288.15 K) of 813.38 ± 0.54 kg/m3 and a mass density (293.15 K) of 809.59 ± 0.55 kg/m3. The mass density (298.15 K) was 805.77 ± 0.56 kg/m3, the mass density (303.15 K) was 801.92 ± 0.57 kg/m3 and the mass density (308.15 K) was 798.05 ± 0.58 kg/m3. For the same compound, the mass density (313.15 K) was 794.14 ± 0.58 kg/m3, the mass density (318.15 K) was 790.19 ± 0.59 kg/m3 and the mass density (323.15 K) was 786.19 ± 0.6 kg/m3. For the same compound, the mass density (328.15 K) was 782.14 ± 0.61 kg/m3 and the mass density (333.15 K) was 778.03 ± 0.62 kg/m3.
For `CCCO` [propan-1-ol], the mass density (283.15 K) was 811.57 ± 1.2 kg/m3, the mass density (288.15 K) was 807.62 ± 1.2 kg/m3 and the mass density (293.15 K) was 803.63 ± 1.2 kg/m3. For the same compound, the mass density (298.15 K) was 799.62 ± 1.2 kg/m3, the mass density (303.15 K) was 795.58 ± 1.2 kg/m3 and the mass density (308.15 K) was 791.49 ± 1.2 kg/m3. It also gave a mass density (313.15 K) of 787.37 ± 1.2 kg/m3, a mass density (318.15 K) of 783.22 ± 1.2 kg/m3 and a mass density (323.15 K) of 779.01 ± 1.2 kg/m3. The mass density (328.15 K) was 774.73 ± 1.2 kg/m3 and the mass density (333.15 K) was 770.39 ± 1.2 kg/m3.
`CC(C)O` [propan-2-ol] gave a mass density (283.15 K) of 793.31 ± 0.74 kg/m3, a mass density (288.15 K) of 789.22 ± 0.75 kg/m3 and a mass density (293.15 K) of 785.08 ± 0.75 kg/m3. It also gave a mass density (298.15 K) of 780.87 ± 0.76 kg/m3, a mass density (303.15 K) of 776.6 ± 0.77 kg/m3 and a mass density (308.15 K) of 772.25 ± 0.77 kg/m3. It also gave a mass density (313.15 K) of 767.81 ± 0.78 kg/m3, a mass density (318.15 K) of 763.28 ± 0.79 kg/m3 and a mass density (323.15 K) of 758.64 ± 0.8 kg/m3. It also gave a mass density (328.15 K) of 753.88 ± 0.8 kg/m3 and a mass density (333.15 K) of 749.01 ± 0.81 kg/m3.
In the case of `CCCCCO` [pentan-1-ol], the mass density (283.15 K) is reported as 822.42 ± 0.69 kg/m3, the mass density (288.15 K) is reported as 818.79 ± 0.7 kg/m3 and the mass density (293.15 K) is reported as 815.13 ± 0.7 kg/m3. For the same compound, the mass density (298.15 K) was 811.45 ± 0.71 kg/m3, the mass density (303.15 K) was 807.74 ± 0.72 kg/m3 and the mass density (308.15 K) was 804.01 ± 0.72 kg/m3. The mass density (313.15 K) was 800.24 ± 0.73 kg/m3, the mass density (318.15 K) was 796.43 ± 0.73 kg/m3 and the mass density (323.15 K) was 792.57 ± 0.74 kg/m3. For the same compound, the mass density (328.15 K) was 788.67 ± 0.75 kg/m3 and the mass density (333.15 K) was 784.72 ± 0.75 kg/m3.
